Source: the supplement of paper PMC10307832

Legend:
Assay in all cases: relative viability (nuclei count vs DMSO), 5 days (fraction); higher = more cells survive
Ponatinib + Trametinib = compound: Cc1ccc(C(=O)Nc2ccc(CN3CCN(C)CC3)c(C(F)(F)F)c2)cc1C#Cc1cnc2cccnn12 [Ponatinib] + CC(=O)Nc1cccc(-n2c(=O)n(C3CC3)c(=O)c3c(Nc4ccc(I)cc4F)n(C)c(=O)c(C)c32)c1 [Trametinib] (partner 0.02 µM)
Procedure, shortened: (§1)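 Lung cancer cell lines, seeded in 1536-well plates, were treated the following day by pin tool with a single drug or with five library-drug doses (not always all listed) in √10 steps on top of a fixed anchor-drug dose. Cells were fixed and nuclei stained in one step after 5 days, and nuclei were counted. Relative viability is the nuclei count for treated wells divided by that for vehicle wells, reported as medians of duplicate plates.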

Ponatinib + Pictilisib = compound: Cc1ccc(C(=O)Nc2ccc(CN3CCN(C)CC3)c(C(F)(F)F)c2)cc1C#Cc1cnc2cccnn12 [Ponatinib] + CS(=O)(=O)N1CCN(Cc2cc3nc(-c4cccc5[nH]ncc45)nc(N4CCOCC4)c3s2)CC1 [Pictilisib] (partner 1 µM)
Procedure, shortened: as §1

Ponatinib + AZD7762 = compound: Cc1ccc(C(=O)Nc2ccc(CN3CCN(C)CC3)c(C(F)(F)F)c2)cc1C#Cc1cnc2cccnn12 [Ponatinib] + NC(=O)Nc1cc(-c2cccc(F)c2)sc1C(=O)N[C@H]1CCCNC1 [AZD7762] (partner 0.2 µM)
Procedure, shortened: as §1

Pazopanib + Phenformin = compound: Cc1ccc(Nc2nccc(N(C)c3ccc4c(C)n(C)nc4c3)n2)cc1S(N)(=O)=O [Pazopanib] + N=C(N)NC(=N)NCCc1ccccc1 [Phenformin] (partner 250 µM)
Procedure, shortened: as §1

| Cell Line | relative viability (Ponatinib + Trametinib; first compound 0.002 µM) | relative viability (Ponatinib + Trametinib; first compound 0.006325 µM) | relative viability (Ponatinib + Trametinib; first compound 0.06325 µM) | relative viability (Ponatinib + Trametinib; first compound 0.2 µM) | relative viability (Ponatinib + Pictilisib; first compound 0.002 µM) | relative viability (Ponatinib + Pictilisib; first compound 0.006325 µM) | relative viability (Ponatinib + Pictilisib; first compound 0.06325 µM) | relative viability (Ponatinib + Pictilisib; first compound 0.2 µM) | relative viability (Ponatinib + AZD7762; first compound 0.002 µM) | relative viability (Ponatinib + AZD7762; first compound 0.006325 µM) | relative viability (Ponatinib + AZD7762; first compound 0.06325 µM) | relative viability (Ponatinib + AZD7762; first compound 0.2 µM) | relative viability (Pazopanib + Phenformin; first compound 0.01 µM) | relative viability (Pazopanib + Phenformin; first compound 0.03162 µM) | relative viability (Pazopanib + Phenformin; first compound 0.1 µM) | relative viability (Pazopanib + Phenformin; first compound 0.3162 µM) | relative viability (Pazopanib + Phenformin; first compound 1 µM) |
| --- | --- | --- | --- | --- | --- | --- | --- | --- | --- | --- | --- | --- | --- | --- | --- | --- | --- |
| NCI-H322M | 0.516 | 0.555 | 0.553 | 0.531 | 0.523 | 0.522 | 0.53 | 0.536 | 0.566 | 0.483 | 0.543 | 0.448 | 0.844 | 0.866 | 0.779 | 0.854 | 0.791 |
| NCI-H2347 | 0.241 | 0.272 | 0.332 | 0.264 | 0.677 | 0.849 | 0.692 | 0.414 | 0.747 | 0.75 | 0.626 | 0.662 | 0.218 | 0.385 | 0.38 | 0.468 | 0.377 |
| NCI-H2087 | 0.217 | 0.201 | 0.131 | 0.153 | 0.879 | 0.831 | 0.933 | 0.787 | 1.05 | 1.07 | 1.43 | 1.19 | 0.373 | 0.464 | 0.445 | 0.483 | 0.513 |
| LC-2-ad | 0.809 | 0.822 | 0.62 | 0.533 | 0.353 | 0.239 | 0.191 | 0.207 | 0.833 | 0.858 | 0.977 | 0.872 | 0.618 | 0.649 | 0.584 | 0.689 | 0.685 |
| NCI-H1915 | 0.303 | 0.321 | 0.288 | 0.24 | 0.892 | 0.98 | 1.03 | 1.03 | 0.553 | 0.697 | 0.591 | 0.651 | 0.402 | 0.364 | 0.367 | 0.36 | 0.343 |
| NCI-H1944 | 0.426 | 0.465 | 0.49 | 0.409 | 0.319 | 0.407 | 0.403 | 0.374 | 0.454 | 0.489 | 0.543 | 0.664 | – | 0.191 | 0.218 | 0.227 | 0.228 |
| LXF-289 | 0.651 | 0.649 | 0.633 | 0.641 | 0.737 | 0.795 | 0.883 | 0.777 | 1.03 | 1.13 | 1.19 | 1.1 | 0.563 | 0.554 | 0.507 | 0.533 | 0.525 |
| PC-3 [JPC-3] | – | 0.769 | 0.88 | 0.699 | 0.653 | 0.708 | 0.885 | 0.875 | – | 0.901 | 1 | 0.873 | 0.52 | 0.465 | 0.513 | 0.472 | 0.478 |
| NCI-H1666 | 0.83 | 0.786 | 0.827 | 0.777 | 0.534 | 0.436 | 0.48 | 0.702 | 0.823 | 0.863 | 0.889 | 0.902 | 0.576 | 0.581 | 0.575 | 0.613 | 0.67 |
| NCI-H2085 | 0.482 | 0.557 | 0.675 | 0.568 | 0.489 | 0.477 | 0.451 | 0.488 | 0.962 | 0.944 | 0.909 | 0.814 | 0.624 | 0.835 | 0.683 | 0.694 | 0.833 |
| NCI-H1734 | 0.63 | 0.658 | 0.527 | 0.505 | 0.421 | 0.456 | 0.414 | 0.365 | 0.514 | 0.516 | 0.418 | 0.461 | 0.353 | 0.416 | 0.417 | 0.495 | 0.418 |
| NCI-H2126 | 0.564 | 0.576 | 0.691 | 0.578 | 0.513 | 0.504 | 0.587 | 0.617 | 0.978 | 0.965 | 1.09 | 0.998 | 0.489 | 0.521 | 0.537 | 0.53 | 0.587 |
| EMC-BAC-2 | 0.875 | 0.897 | 0.91 | 0.718 | 0.549 | 0.537 | 0.684 | 0.527 | 0.996 | 1.05 | 1.13 | 0.989 | – | 0.513 | 0.498 | 0.536 | 0.537 |
| NCI-H1993 | 0.539 | 0.506 | 0.64 | 0.572 | 0.804 | 0.805 | 0.73 | 0.868 | 0.65 | 0.86 | 0.773 | 0.689 | – | 0.457 | 0.502 | 0.591 | 0.496 |
| NCI-H596 | 0.783 | 0.812 | 0.825 | 0.642 | 0.354 | 0.401 | 0.36 | 0.374 | 1.08 | 1.04 | 0.912 | 0.632 | – | 0.916 | 0.732 | 0.879 | 0.963 |
| NCI-H650 | 0.929 | 0.962 | 0.949 | 0.83 | 0.843 | 0.739 | 0.758 | 0.88 | 0.695 | 0.92 | 0.981 | 0.572 | 0.42 | 0.473 | 0.438 | 0.466 | 0.444 |
| NCI-H1792 | 0.312 | 0.546 | 0.54 | 0.403 | 0.241 | 0.347 | 0.388 | 0.284 | 0.708 | 0.478 | 0.55 | 0.407 | – | 0.308 | – | 0.348 | 0.31 |
